# Assay results reported in patent publication US7297691B2, “Treatment of sleep disorders with cholinesterase inhibitors” (priority 2003, dated 2007).
# Structures can show the parent of a compound that is named as a salt.
# Columns and labels:
# [1] = tested on: cholinesterase in hemolyzed whole blood (hemolysate); assay: SIGMA DIAGNOSTICS CHOLINESTERASE (PTC) kit, hemolysate ChE activity in blood samples; type: biochemical, human; settings: for Hemolysate ChE activity: blood samples from 3 patients, no Nivalin = 1.00
# Description: (§1) SIGMA DIAGNOSTICS® CHOLINESTERASE (PTC) kit, available from Sigma Diagnostics, can be used for determining the activity and selectivity of cholinesterase inhibitors.
# (§2) Reactions involved in the cholinesterase assay are as follows:
# (§3) [drawing 4] 5-thio-2-nitrobenzoic acid is assessed by measuring the absorbance at 405 nm. The rate of change in absorbance at 405 nm is directly proportional to cholinesterase activity.
# (§4) The activity of erythrocyte cholinesterase may be calculated on the basis of the measurement of butyrylcholinesterase (pseudocholinesterase) in serum and cholinesterase in hemolyzed whole blood (hemolysate), both measured simultaneously by the method described above, and evaluated according to the hematocrit value according to the formula HchE=(EchE×Hct*)+(PchE×(1−Hct*)) Therefore, EchE=(HchE−(PchE×(1−Hct*))/Hct*. • Hematocrit value expressed as decimal equivalent (i.e. 25%=0.25) In the above formulae, EChE is erythrocyte cholinesterase activity, PChE is plasma cholinesterase activity, HChE is hemolysate cholinesterase activity, and Hct is hematocrit value of the sample.
# (§5) Another way of assessing the cholinesterase activity is to measure the plasma cholinesterase and the cholinesterase in purified hemolyzed erythrocytes. By doing this, the values are obtained directly.
# (§6) Blood samples from 3 patients are tested with the Sigma test.
# [2] = cited from earlier work
# [3] = target: T1, butyrylcholinesterase (pseudocholinesterase) in serum (Homo sapiens, UniProt P06276); assay: SIGMA DIAGNOSTICS CHOLINESTERASE (PTC) kit, serum ChE activity in blood samples; type: biochemical; settings: for Serum ChE activity: blood samples from 3 patients, no Nivalin = 1.00
# T1 construct: butyrylcholinesterase (pseudocholinesterase) in serum; from tissue; host or cells: serum of patients
# Description: as §1, §2, §3, §4, §5, §6
# [4] = in humans; cited from earlier work
# [5] = in vivo; cited from earlier work
# [6] = side effects in patients treated; type: in vivo, human
# [7] = cited from earlier work; remark: listed apart in the source
# [8] = 1.25 μg/ml Nivalin added in vitro
# [9] = 2.50 μg/ml Nivalin added in vitro
# [10] = 1.25 and 2.5 μg/ml added in vitro
# T1 sequence (P06276 29-602): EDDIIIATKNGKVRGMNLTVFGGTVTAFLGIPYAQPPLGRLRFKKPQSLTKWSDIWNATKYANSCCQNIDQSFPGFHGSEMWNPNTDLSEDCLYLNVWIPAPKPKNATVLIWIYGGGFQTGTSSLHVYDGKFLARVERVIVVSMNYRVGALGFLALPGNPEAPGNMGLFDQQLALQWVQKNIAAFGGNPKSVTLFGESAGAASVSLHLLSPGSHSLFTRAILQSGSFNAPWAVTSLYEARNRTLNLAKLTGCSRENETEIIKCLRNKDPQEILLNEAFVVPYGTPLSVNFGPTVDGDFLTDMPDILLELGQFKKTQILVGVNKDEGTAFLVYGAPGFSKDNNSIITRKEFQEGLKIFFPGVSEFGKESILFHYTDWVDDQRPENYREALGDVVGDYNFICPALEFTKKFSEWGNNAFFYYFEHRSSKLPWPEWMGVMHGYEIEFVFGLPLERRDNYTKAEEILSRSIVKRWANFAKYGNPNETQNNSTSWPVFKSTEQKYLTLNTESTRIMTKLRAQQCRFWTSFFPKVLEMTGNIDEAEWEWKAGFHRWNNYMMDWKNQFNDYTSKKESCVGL
Compound,"Hemolysate ChE activity [1, 8]","Hemolysate ChE activity [1, 9]","change of hemolysate cholinesterase activity with increased concentration [1, 10]",lipid solubility [2],"Serum ChE activity [3, 8]","Serum ChE activity [3, 9]","change of serum activity as a response to the addition [3, 10]",passing the blood-brain barrier [4],elimination half life [5],"more severe side effects, share of patients [6]","vomiting and dizziness, share of patients ([6]; disappearing after about one week in most cases)","slight nausea, share of cases ([6]; disappearing after about one week of treatment)",solubility in water ([2]; at room temperature),complete elimination of metabolites and galantamine [5] [h],toxicity ([7]; in therapeutic concentrations),severe side effects ([7]; in therapeutically effective dosages),reported cases of liver toxicity or serious side effects ([7]; use as anticurare agent in anesthesiology since around 1958)
"COc1ccc2c3c1O[C@H]1C[C@@H](O)C=C[C@@]31CCN(C)C2 [Nivalin, Galantamine hydrobromide]",0.96,0.86,significant reduction,lipid soluble,0.98,0.97,do not show any statistically significant change,transverses the blood brain barrier easily,over four hours,–,–,–,–,–,–,–,–
"[4aS-(4aα,6β,8aR*)]-4a,5,9,10 11,12-hexahydro-3-methoxy-11-methyl-6H-benzofuro[3a,3,2-ef][2]benzazepin-6-ol [Galantamine]",–,–,–,–,–,–,–,–,–,4-6%,5-10%,about 30%,only sparingly soluble,72,relatively low toxicity,no severe side effects,without any reported case
